For data set [1], the system named is leukemia and multiple myeloma target cells. The data set can be described thus: In vitro anti-tumor (cytotoxic) activity of mobilized PBHC grafts. The data set is classed as cell-based, human. The settings on record: compared to rest / G-CSF only. The source says: Moreover, cytotoxic activity against leukemia and multiple myeloma target cells in vitro was 2-fold greater in the G-CSF+ISO PBHC grafts compared to G-CSF alone. […] Accordingly, in some embodiments, provided herein are compositions and methods for mobilizing stem cells with enhanced properties for use in allogenic or autologous transfers.
(§1) This was largely explained by a shift in the composition of NK-cells and TCR-γδ cells. […] The effects of systemic β-AR activation on the mobilization and ex vivo expansion of VSTs and TCR-γδ cells were β2-AR mediated as the effects were diminished by administering nadolol but not bisoprolol prior to systemic β-AR activation (FIG. 6).

In data set [2] the test system is lymphocytes, lymphocyte subtypes and CD34+ HSCs in whole blood. The note with it: ISO dose of 50 ng/kg/min, healthy subjects, literature; cited from earlier work.
Data set [3] has the same test system. Briefly: Lymphocyte subtypes and CD34+ HSCs in whole blood at rest and during ISO infusion before and after G-CSF treatment. The data set is classed as in vivo, human. The note with it: for Absolute number of B cells in whole blood / Absolute number of CD3+ T cells in whole blood / Absolute number of CD4+ T cells in whole blood / Absolute number of CD8+ T cells in whole blood / Absolute number of CD34+ HSCs in whole blood / Absolute number of CM CD4+ T cells in whole blood / Absolute number of CM CD8+ T cells in whole blood / Absolute number of EM CD4+ T cells in whole blood / Absolute number of EM CD8+ T cells in whole blood / Absolute number of EMRA CD4+ T cells in whole blood / Absolute number of EMRA CD8+ T cells in whole blood / Absolute number of NK cells in whole blood / Absolute number of Naïve CD4+ T cells in whole blood / Absolute number of Naïve CD8+ T cells in whole blood / Absolute number of lymphocytes (Lymph.) in whole blood / Absolute number of αβ T cells in whole blood / Absolute number of γδ T cells in whole blood: mean, n = 3.

The test system is the same in data set [4]. The data set is described as above. It counts as in vivo, human. The source says:
Values are the mean (n=7; 3 females).
This graft phenotype is predictive of improved clinical outcomes post alloHSCT, including lower incidence/severity of GvHD and viral infections, better engraftment and a lower incidence of relapse (Table 1).

The conditions of data set [5]: ISO dose of 50 ng/kg/min, literature; cited from earlier work.
Data set [6] is described as follows: Heart rate, blood pressure and tolerance during ISO infusion. It counts as in vivo, human. The settings on record: ISO 50 ng/kg/min, before and after 5-days G-CSF (5 mcg/kg/day); n=3.
From the text: Research Design: Scientific Rigor is maintained through the use of a randomized, complete cross-over, double blind placebo controlled experimental design (above table). This design allows participants to act as their own controls, thus minimizing variability and the impact of potential between-subject confounders. Healthy volunteers report to the lab on six separate occasions at the same time of day. During Visit 1, they undergo an extensive screening procedure to ensure that they meet the study inclusion/exclusion criteria. A blood sample is drawn to determine CMV serostatus (positive or negative) and MR haplotype (A or B), which is included as co-variates in the analysis. Participants then complete six trials on separate days (Visit 2-7) with 7-days interspersed between each trial. During each of these visits, subjects are infused with 50 ng/kg/min of ISO (5 visits) or saline (1 visit) for 30-minutes. Blood samples are drawn before and during the last 10-minutes of the 30-minute infusion protocol. Participants are given orally administered drugs or placebo as a single dose within a few hours prior to ISO infusion. Participants are assigned to trial order using a block randomization scheme with random block sizes of between 2 and 4 subjects to obtain a balanced sample of 8 subjects per trial sequence order (see Statistical Power and Analysis section below). The randomization list is used to create sealed envelopes that are opened to determine assignment to drug order group after visit 1, with the trial order blinded to both the investigators and the participants.
Data set [7] deals with VSTs specific to CMV, EBV and adenovirus antigens. Briefly: Mobilization of viral-specific T-cells (IFN-γ ELISpot and IFN-γ capture assays) with systemic β-AR activation. It counts as in vivo, human. The settings on record: healthy humans (n=11). The source says:
Difference from the resting condition indicated by *, p<0.05. Difference from the placebo and bisoprolol trials indicated by #, p<0.05.

For data set [8], the system named is lymphocyte composition in blood. Briefly: β-AR antagonists / PDE-4 inhibitor given prior to systemic β-AR activation (dynamic exercise): lymphocyte composition and heart rate. The data set is classed as in vivo, human. The note with it: antagonist administered prior to systemic β-AR activation (dynamic exercise model). On the procedure:
Baseline samples were collected before drug/placebo administration and again 3 h later (pre-exercise).
To determine the β-AR subtype involved, a selective β1-AR antagonist (bisoprolol) and non-selective β1+β2-AR antagonist (nadolol) were administered prior to systemic β-AR activation (using dynamic exercise as an experimental model).

The conditions of data set [9]: oral, literature; cited from earlier work.
In the next data set the test system is VSTs and TCR-γδ cells. Briefly: Mobilization and ex vivo expansion of VSTs and TCR-γδ cells after systemic β-AR activation. The data set is classed as cell-based, human. The note with it: antagonist administered prior to systemic β-AR activation.
From the text: as §1

Where [10] appears, read: ISO infusion 50 ng/kg/min, before and after 5-days G-CSF (5 mcg/kg/day), n=7.
Where [11] appears, read: Post G-CSF, during ISO infusion.
Setting [12] is: after G-CSF mobilization, healthy volunteers.

“Also recorded” adds a separate entry of the source.

As usually defined, the half-life is the time in which the quantity being followed falls by half.

Take `CC(C)NCC(O)c1ccc(O)c(O)c1` (centres unmarked) [ISO, isoproterenol]: the “in vitro anti-tumor activity of G-CSF mobilized PBHC grafts” value in data set [1] was “increases”. Also, the “mobilization of lymphocytes to the circulation” value in data set [2] was “robust mobilization”. For the same molecule, the “composition of NK-cells and TCR-γδ cells among total blood lymphocytes” value in data set [3] (setting [10]) was “markedly increases”. In data set [3] (setting [11]), the “Absolute number of B cells in whole blood” value (shortened to “Absolute number of B cells”) is 392 cells/ul, the “Absolute number of CD3+ T cells in whole blood” value (from here on “Absolute number of CD3+ T cells”) stood at 2933 cells/ul, the “Absolute number of CD4+ T cells in whole blood” value (from here on “Absolute number of CD4+ T cells”) worked out at 1835 cells/ul and the “Absolute number of CD8+ T cells in whole blood” value (from here on “Absolute number of CD8+ T cells”) was found to be 795 cells/ul. Also, in data set [3] (setting [11]), the “Absolute number of CD34+ HSCs in whole blood” value (from here on “Absolute number of CD34+ HSCs”) is given as 92 cells/ul, the “Absolute number of CM CD4+ T cells in whole blood” value (“Absolute number of CM CD4+ T cells” below) was found to be 298 cells/ul, the “Absolute number of CM CD8+ T cells in whole blood” value (“Absolute number of CM CD8+ T cells” below) is given as 41 cells/ul and the “Absolute number of EM CD4+ T cells in whole blood” value (“Absolute number of EM CD4+ T cells” below) is reported as 429 cells/ul. Further, in data set [3] (setting [11]), the “Absolute number of EM CD8+ T cells in whole blood” value (“Absolute number of EM CD8+ T cells” below) came out at 342 cells/ul, the “Absolute number of EMRA CD4+ T cells in whole blood” value is given as 220 cells/ul, the “Absolute number of EMRA CD8+ T cells in whole blood” value was 184 cells/ul and the “Absolute number of NK cells in whole blood” value (“Absolute number of NK cells” below) amounted to 2068 cells/ul. In [3] (setting [11]), the “Absolute number of Naïve CD4+ T cells in whole blood” value turned out to be 886 cells/ul, the “Absolute number of Naïve CD8+ T cells in whole blood” value is given as 227 cells/ul, the “Absolute number of lymphocytes (Lymph.) in whole blood” value (“Absolute number of lymphocytes” for short) amounted to 6730 cells/ul and the “Absolute number of αβ T cells in whole blood” value (shortened to “Absolute number of αβ T cells”) came out at 2253 cells/ul. Also, the “Absolute number of γδ T cells in whole blood” value (“Absolute number of γδ T cells” for short) in data set [3] (setting [11]) came out at 214 cells/ul. In data set [3] (Pre G-CSF, during ISO infusion), the “Absolute number of B cells” value is recorded as 100 cells/ul, the “Absolute number of CD3+ T cells” value is given as 924 cells/ul, the “Absolute number of CD4+ T cells” value was found to be 489 cells/ul and the “Absolute number of CD8+ T cells” value is listed as 329 cells/ul. Besides, in [3] (Pre G-CSF, during ISO infusion), the “Absolute number of CD34+ HSCs” value was found to be 6 cells/ul, the “Absolute number of CM CD4+ T cells” value turned out to be 137 cells/ul, the “Absolute number of CM CD8+ T cells” value amounted to 34 cells/ul and the “Absolute number of EM CD4+ T cells” value is 80 cells/ul. Also, in [3] (Pre G-CSF, during ISO infusion), the “Absolute number of EM CD8+ T cells” value was 114 cells/ul, the “Absolute number of EMRA CD4+ T cells in whole blood” value was found to be 13 cells/ul, the “Absolute number of EMRA CD8+ T cells in whole blood” value is listed as 81 cells/ul and the “Absolute number of NK cells” value came out at 778 cells/ul. In [3] (Pre G-CSF, during ISO infusion), the “Absolute number of Naïve CD4+ T cells in whole blood” value was found to be 257 cells/ul, the “Absolute number of Naïve CD8+ T cells in whole blood” value came to 99 cells/ul, the “Absolute number of lymphocytes” value is reported as 2043 cells/ul and the “Absolute number of αβ T cells” value was determined as 830 cells/ul. The “Absolute number of γδ T cells” value in [3] (Pre G-CSF, during ISO infusion) was found to be 91 cells/ul. Also, the “ratio of 'favorable' to 'unfavorable' lymphocyte subtypes in peripheral blood” value in data set [3] (setting [12]) was “alters”. The “composition of CD4+ TCR-αβ cells and B-cells among total blood lymphocytes” value in data set [4] (setting [10]) is “lowers”. In addition, the “numbers of CD34 HSCs in peripheral blood / graft” value in data set [4] (setting [12]) is “increases; also recorded: without compromising”. Further, the “safety for infusing healthy subjects” value in data set [5] was “safe”. In [6], the systolic hypertension was roughly 30 mmHg, the tachycardia is recorded as roughly 50 bpm and the “tolerance to ISO infusion” value is “excellent tolerance”.

Take `CC(C)NCC(O)COc1ccc(COCCOC(C)C)cc1` (centres unmarked) [bisoprolol]: the “effects of systemic β-AR activation on the mobilization of VSTs” value in [7] is on record as “not”. Further, in data set [8], the “effects of systemic β-AR activation on graft composition shifts” value is reported as “remained favorably altered”. The half-life in [9] was 10 to 12 h.

`COc1ccccc1OCCNCC(O)COc1cccc2[nH]c3ccccc3c12` (centres unmarked) [carvedilol]: the half-life in [9] is 7 to 10 h.

Consider `CC(C)(C)NCC(O)COc1cccc2c1CC(O)C(O)C2` (centres unmarked) [nadolol], for which, in [7], the “effects of systemic β-AR activation on the mobilization of VSTs” value is reported as “inhibits; also recorded: blocked”. Moreover, the entries for the “effects of systemic β-AR activation on graft composition shifts” value in data set [8] and in data set [8] (listed as Nadolol) were “not” and “abrogated”, respectively. For the same molecule, the “effects of systemic β-AR activation on the mobilization and ex vivo expansion of VSTs and TCR-γδ cells” value with VSTs and TCR-γδ cells was “diminished”. Also, the half-life in data set [9] is 14 to 24 h.

As for `O=C(Nc1c(Cl)cncc1Cl)c1ccc(OC(F)F)c(OCC2CC2)c1` [roflumilast], the half-life in data set [9] is 15 to 18 h.

B1: G-CSF: stem cell mobilization agent; filgrastim (G-CSF), 5 mcg/kg/day for 5 days (protein, chains of the INN, looked up)
chain: MTPLGPASSLPQSFLLKCLEQVRKIQGDGAALQEKLCATYKLCHPEELVLLGHSLGIPWAPLSSCPSQALQLAGCLSQLHSGLFLYQGLLQALEGISPELGPTLDTLQLDVADFATTIWQQMEELGMAPALQPTQGAMPAFASAFQRRAGGVLVASHLQSFLEVSYRVLRHLAQP
On to B1, for which, in [3] (Post G-CSF, Rest), the “Absolute number of B cells” value is given as 456 cells/ul, the “Absolute number of CD3+ T cells” value came to 2755 cells/ul, the “Absolute number of CD4+ T cells” value is given as 1749 cells/ul and the “Absolute number of CD8+ T cells” value was 786 cells/ul. Besides, in data set [3] (Post G-CSF, Rest), the “Absolute number of CD34+ HSCs” value was found to be 110 cells/ul, the “Absolute number of CM CD4+ T cells” value came out at 268 cells/ul, the “Absolute number of CM CD8+ T cells” value was 47 cells/ul and the “Absolute number of EM CD4+ T cells” value came out at 405 cells/ul. Moreover, in [3] (Post G-CSF, Rest), the “Absolute number of EM CD8+ T cells” value was determined as 284 cells/ul, the “Absolute number of EMRA CD4+ T cells in whole blood” value came out at 216 cells/ul, the “Absolute number of EMRA CD8+ T cells in whole blood” value came to 154 cells/ul and the “Absolute number of NK cells” value was 1158 cells/ul. Also, in data set [3] (Post G-CSF, Rest), the “Absolute number of Naïve CD4+ T cells in whole blood” value stood at 860 cells/ul, the “Absolute number of Naïve CD8+ T cells in whole blood” value stood at 302 cells/ul, the “Absolute number of lymphocytes” value is 5866 cells/ul and the “Absolute number of αβ T cells” value came to 2661 cells/ul. For the same molecule, the “Absolute number of γδ T cells” value in data set [3] (Post G-CSF, Rest) is on record as 93 cells/ul.

The record behind these values is patent US20220127576A1, “COMPOSITIONS AND METHODS FOR STEM CELL THERAPY” (Arizona Board of Regents on Behalf of the University of …, priority 2019, published 2022).
